According to patent publication EP3052475B1, “PHARMACEUTICAL USE OF 3-BENZYLSULFONYLPROPIONITRILE” (Olatec Therapeutics LLC, priority 2013, dated 2015):

How the values were obtained:
[1] = test system: arachidonic acid-induced ear swelling; experiment: topical arachidonic acid-induced ear swelling model in mice; assay type: in vivo, Male ICR mice; settings: inhibition of ear swelling vs vehicle, measured at 90 minutes after arachidonic acid application; topical application 30 min before and 15 min after arachidonic acid; indomethacin 14 mM (0.1 mg/20 µL, n=5), test compound 375 mM (1.0 mg/20 µL, n=10); P <0.001
Procedure: 3-Benzylsulfonylpropionitrile, prepared from Example 1, was used in this experiment.
The test compound, indomethacin (positive control), and vehicle were evaluated for anti-inflammatory activity in a topical arachidonic acid-induced ear swelling model in mice.
Male ICR mice weighing 22 ± 2 g were used and randomly divided; the test compound and vehicle control had 10 mice, and indomethacin had 5 mice. Arachidonic Acid (0.5 mg in 20 µl of acetone:ethanol/1:1) was applied topically to the anterior and posterior surfaces of the right ear of each mice. Test substances and vehicle, as listed in Table 1 were similarly applied 30 min before and 15 min after arachidonic acid application. The thickness of the right ear and the left ear was measured and the difference calculated as an indication of the inflammation in the right ear. Ear swelling was measured by a Dyer model micrometer gauge at 60 and 90 minutes after arachidonic acid application as an index of inflammation. Percent inhibition was calculated according to the formula: Ic - It/Ic x 100, where Ic and It refers to increase of ear thickness (mm) in control and treated mice, respectively. ANOVA and Dunnett's test were employed to ascertain significant difference between vehicle control and treated groups. Significance is set at P<0.05 level.

[2] = test system: tail flick reaction to heat; experiment: tail flick test in mice (49°C water bath); assay type: in vivo
Procedure: The tail flick test is a test of the pain response in animals. The tail flick test is used in basic pain research and to measure the effectiveness of analgesics, by observing the tail flick reaction to heat in an animal. This test assesses the nociceptive response to a local pain stimulus, and the ability of a drug to inhibit this response. […] The test compound was administered at a dosage of 500 mg/kg in DMSO. […] Each group had 10 mice. The response of mice to heat stimulus was evaluated by measuring the time of tail-flick or tail-flick latency from 49°C water bath. Briefly, the animal was held with its tail hanging down. Approximately 2 inches of the tail was immersed in a beaker of water at 38±1 °C for about 30 seconds, and this was done twice to acclimate the animal to the procedure. Subsequently, approximately 2 inches of the tail was immersed in a beaker of water at 49±1°C, at which point a timer was started. […] An ANOVA was done, and if p<0.05, a Dunnett's t test was employed to calculate significant difference between vehicle control and test compound treated groups. […] Results of tail flick response from each group are calculated as mean ± SEM (standard error of mean).

N#CCCS(=O)(=O)Cc1ccccc1 [3-Benzylsulfonylpropionitrile, 3-benzylsulfonylpropionitrile]
% Inhibition [1]: 35%
tail flick latency compared with vehicle-treated mice ([2]; 500 mg/kg in DMSO, oral gavage, measured at 30, 60 and 120 minutes post dosing, n=10, significance p<0.05): statistically significant tail flick latency at 30, 60, and 120 minutes

CN1CC[C@]23c4c5ccc(O)c4O[C@H]2[C@@H](O)C=C[C@H]3[C@H]1C5 [morphine, reference compound]
tail flick latency compared with vehicle-treated mice ([2]; mouse, in vivo): statistically significant tail flick latency at 30 and 60 minutes, but not 120 minutes
